Reference: US10131648B2, “Substituted benzothiophenyl derivatives as GPR40 agonists for the treatment of type II diabetes” (Janssen Pharmaceutica NV, priority 2014, dated 2018)
pEC50: −log10 of the molar value.

Experiments:
[1] = molecular target: human GPR40 (Homo sapiens (Human), UniProt O14842); assay: GPR40 Calcium Flux Assay; assay type: cell-based; conditions: transfected HEK293 cells stably expressing human GPR40; Ca2+ mobilization; mean data; read-out: hGPR40 Ca^2+ Assay EC50
[2] = system: Male SD rats; assay: Oral Glucose Tolerance Test; assay type: in vivo, rat; conditions: 10 mg/kg, thirty to forty min prior to oGTT (glucose, 2 g/kg, po), blood glucose AUC t=0 to t=120 minutes
Description: Male SD rats (200-250 g) were housed 2 per cage in a temperature-controlled room with a 12-hour light/dark cycle. They were allowed ad libitum access to water and fed with normal rodent chow. The night before the oral glucose tolerance test (oGTT), the rats were transferred to clean cages and fasted overnight. On the morning of the oGTT, the rats were weighed and randomized into groups based on fasted blood glucose and body weight. Rats were dosed with vehicle (0.5% methocel) or compounds (10 mg/kg, po) thirty to forty min prior to the oGTT (glucose, 2 g/kg, po). Blood was collected from the tail vein at 0, 10, 30, 60 and 120 minutes after glucose challenge to measure blood glucose; plasma was used to determine insulin levels. The area under the curve for blood glucose excursion was calculated from t=0 to t=120 minutes. Percent lowering of glucose was calculated from the AUC data with respect to the vehicle-treated group.

human GPR40, sequence (O14842 whole entry): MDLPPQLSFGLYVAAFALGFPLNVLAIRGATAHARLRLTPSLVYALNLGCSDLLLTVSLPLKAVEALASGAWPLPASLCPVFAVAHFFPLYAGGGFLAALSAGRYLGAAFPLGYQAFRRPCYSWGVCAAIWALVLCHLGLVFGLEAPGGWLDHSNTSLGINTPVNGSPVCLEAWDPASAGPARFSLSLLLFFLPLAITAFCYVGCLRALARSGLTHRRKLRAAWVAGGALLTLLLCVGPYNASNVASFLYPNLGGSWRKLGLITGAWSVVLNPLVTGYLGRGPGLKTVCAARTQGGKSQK

Compound	pEC50 [1]	Percent Lowering of Glucose (AUC compound vs. AUC Vehicle) [2]
CC#C[C@@H](CC(=O)O)c1ccc(OCc2ccc3scc(-c4ccccc4C)c3c2)cc1 [Cpd 2, (3S)-3-[4-[[3-(2-Methylphenyl)benzo[b]thiophen-5-yl]methoxy]phenyl]hex-4-ynoic acid]	8.30	72%
CC#C[C@@H](CC(=O)O)c1ccc(OCc2ccc3scc(-c4ccc(OCCOC)cc4C)c3c2)cc1 [Cpd 16, (3S)-3-(4-((3-(4-(2-Methoxyethoxy)-2-methylphenyl)benzo[b]thiophen-5-yl)methoxy)phenyl)hex-4-ynoic acid]	8.30	76%
CC#C[C@@H](CC(=O)O)c1ccc(OCc2ccc3scc(-c4ccc(C5CCNCC5)cc4C)c3c2)cc1 [Cpd 96, (3S)-3-(4-((3-(2-Methyl-4-(piperidin-4-yl)phenyl)benzo[b]thiophen-5-yl)methoxy)phenyl)hex-4-ynoic acid]	8.10	
CC#CC(CC(=O)O)c1ccc(OCc2ccc3scc(-c4ccccc4C)c3c2)cc1 (stereo not shown) [Cpd 97, 3-(4-((3-(2-Methylphenyl)benzo[b]thiophen-5-yl)methoxy)phenyl)hex-4-ynoic acid]	8.70	
CC#C[C@H](CC(=O)O)c1ccc(OCc2ccc3scc(-c4ccccc4C)c3c2)cc1 [Cpd 98, (3R)-3-[4-[[3-(2-Methylphenyl)benzo[b]thiophen-5-yl]methoxy]phenyl]hex-4-ynoic acid]	6.80	
